Measured values: patent US20100298141A1, “SUBSTITUTED PYRIDINE N-OXIDE HERBICIDES” (E. I. DU PONT DE NEMOURS AND COMPANY, priority 2007, published 2010)

Key:
[1] = tested on: barnyardgrass; experiment: Test A pre-/postemergence greenhouse test; type: in vivo, Echinochloa crus-galli; details: for Plant response rating, Barnyardgrass: 0 to 100 scale where 0 is no effect and 100 is complete control; for Barnyardgrass plant response rating: 0 to 100 scale
Outline: (§1)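 Visual injury ratings, made relative to untreated controls roughly ten days after treatment, cover both preemergence and postemergence application. Compounds in a surfactant-containing non-phytotoxic solvent were sprayed onto the soil surface after sowing and, simultaneously, onto young plants at the one- to two-leaf stage.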

[2] = tested on: crabgrass; experiment: Test A pre-/postemergence greenhouse test; type: in vivo, Digitaria sanguinalis; details: for Plant response rating, Crabgrass, Large: 0 to 100 scale where 0 is no effect and 100 is complete control; for Crabgrass, Large plant response rating: 0 to 100 scale
Outline: as §1

[3] = tested on: giant foxtail; experiment: Test A pre-/postemergence greenhouse test; type: in vivo, Setaria faberi; details: for Plant response rating, Foxtail, Giant: 0 to 100 scale where 0 is no effect and 100 is complete control; for Foxtail, Giant plant response rating: 0 to 100 scale
Outline: as §1

[4] = tested on: morningglory; experiment: Test A pre-/postemergence greenhouse test; type: in vivo, Ipomoea spp.; details: for Plant response rating, Morningglory: 0 to 100 scale where 0 is no effect and 100 is complete control; for Morningglory plant response rating: 0 to 100 scale
Outline: as §1

[5] = tested on: redroot pigweed; experiment: Test A pre-/postemergence greenhouse test; type: in vivo, Amaranthus retroflexus; details: for Plant response rating, Pigweed: 0 to 100 scale where 0 is no effect and 100 is complete control; for Pigweed plant response rating: 0 to 100 scale
Outline: as §1

[6] = tested on: velvetleaf; experiment: Test A pre-/postemergence greenhouse test; type: in vivo, Abutilon theophrasti; details: for Plant response rating, Velvetleaf: 0 to 100 scale where 0 is no effect and 100 is complete control; for Velvetleaf plant response rating: 0 to 100 scale
Outline: as §1

[7] = tested on: wheat; experiment: Test A pre-/postemergence greenhouse test; type: in vivo, Triticum aestivum; details: for Plant response rating, Wheat: 0 to 100 scale where 0 is no effect and 100 is complete control; for Wheat plant response rating: 0 to 100 scale
Outline: as §1

[8] = tested on: corn; experiment: Test A pre-/postemergence greenhouse test; type: in vivo, Zea mays; details: for Plant response rating, Corn: 0 to 100 scale where 0 is no effect and 100 is complete control; for Corn plant response rating: 0 to 100 scale
Outline: as §1

[9] = tested on: rice; experiment: Test C flooded paddy test; type: in vivo, Oryza sativa; details: Flood
Outline: (§2)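 Ratings were visual and made relative to untreated controls after 13 to 15 greenhouse days.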

[10] = tested on: umbrella sedge; experiment: Test C flooded paddy test; type: in vivo, Cyperus difformis; details: Flood
Outline: as §2

[11] = tested on: duck salad; experiment: Test C flooded paddy test; type: in vivo, Heteranthera limosa; details: Flood
Outline: as §2

[12] = tested on: barnyardgrass; experiment: Test C flooded paddy test; type: in vivo, Echinochloa crus-galli; details: Flood
Outline: as §2

[13] = Postemergence, 500 g ai/ha, 0 is no effect, 100 is complete control
[14] = Preemergence, 125 g ai/ha, 0 no effect, 100 complete control
[15] = 62 g ai/ha, scale 0 to 100 (0 no effect, 100 complete control)
[16] = 250 g ai/ha, scale 0 to 100, 0 no effect, 100 complete control, 13 to 15 days

| Compound | Plant response rating, Barnyardgrass ([1]; Postemergence, 125 g ai/ha) | Barnyardgrass plant response rating [1, 13] | Barnyardgrass plant response rating [1, 14] | Plant response rating, Barnyardgrass ([1]; Preemergence, 500 g ai/ha) | Plant response rating, Crabgrass, Large ([2]; Postemergence, 125 g ai/ha) | Crabgrass, Large plant response rating [2, 13] | Crabgrass, Large plant response rating [2, 14] | Plant response rating, Crabgrass, Large ([2]; Preemergence, 500 g ai/ha) | Plant response rating, Foxtail, Giant ([3]; Postemergence, 125 g ai/ha) | Foxtail, Giant plant response rating [3, 13] | Foxtail, Giant plant response rating [3, 14] | Plant response rating, Foxtail, Giant ([3]; Preemergence, 500 g ai/ha) | Plant response rating, Morningglory ([4]; Postemergence, 125 g ai/ha) | Morningglory plant response rating [4, 13] | Morningglory plant response rating [4, 14] | Plant response rating, Morningglory ([4]; Preemergence, 500 g ai/ha) | Plant response rating, Pigweed ([5]; Postemergence, 125 g ai/ha) | Pigweed plant response rating [5, 13] | Pigweed plant response rating [5, 14] | Plant response rating, Pigweed ([5]; Preemergence, 500 g ai/ha) | other results |
| --- | --- | --- | --- | --- | --- | --- | --- | --- | --- | --- | --- | --- | --- | --- | --- | --- | --- | --- | --- | --- | --- |
| Cn1nc(C(F)(F)F)c(CS(=O)(=O)c2cc(C(C)(C)C)cc[n+]2[O-])c1OCC(F)(F)F [Compound 72] | 0 | 60 | 40 | 100 | 0 | 60 | 80 | 100 | 10 | 60 | 100 | 100 | 0 | 40 | 0 | 60 | 20 | 60 | 60 | 90 | Plant response rating, Velvetleaf ([6]; Postemergence, 125 g ai/ha): 0; Velvetleaf plant response rating [6, 13]: 40; Velvetleaf plant response rating [6, 14]: 0; Plant response rating, Velvetleaf ([6]; Preemergence, 500 g ai/ha): 90; Plant response rating, Wheat ([7]; Postemergence, 125 g ai/ha): 0; Wheat plant response rating [7, 13]: 60; Wheat plant response rating [7, 14]: 30; Plant response rating, Wheat ([7]; Preemergence, 500 g ai/ha): 70; Plant response rating, Corn ([8]; Postemergence, 125 g ai/ha): 0; Corn plant response rating [8, 13]: 0; Corn plant response rating [8, 14]: 0; Plant response rating, Corn ([8]; Preemergence, 500 g ai/ha): 50; Plant response rating, Rice [9, 15]: 0; Plant response rating, Rice [9, 16]: 0; Plant response rating, Sedge, Umbrella [10, 15]: 0; Plant response rating, Sedge, Umbrella [10, 16]: 70; Plant response rating, Ducksalad [11, 15]: 0; Plant response rating, Ducksalad [11, 16]: 75; Plant response rating, Barnyardgrass [12, 15]: 0; Plant response rating, Barnyardgrass [12, 16]: 0 |
| Cn1nc(C(F)(F)F)c(C[S+]([O-])c2cc(C(C)(C)C)cc[n+]2[O-])c1OCC(F)(F)F (racemic) [Compound 61] | 30 | 80 | 0 | 100 | 30 | 60 | 70 | 100 | 50 | 70 | 100 | 100 | 0 | 70 | 60 | 100 | 40 | 60 | 80 | 100 | Plant response rating, Velvetleaf ([6]; Postemergence, 125 g ai/ha): 0; Velvetleaf plant response rating [6, 13]: 70; Velvetleaf plant response rating [6, 14]: 0; Plant response rating, Velvetleaf ([6]; Preemergence, 500 g ai/ha): 100; Plant response rating, Wheat ([7]; Postemergence, 125 g ai/ha): 50; Wheat plant response rating [7, 13]: 60; Wheat plant response rating [7, 14]: 50; Plant response rating, Wheat ([7]; Preemergence, 500 g ai/ha): 100; Plant response rating, Corn ([8]; Postemergence, 125 g ai/ha): 30; Corn plant response rating [8, 13]: 70; Corn plant response rating [8, 14]: 0; Plant response rating, Corn ([8]; Preemergence, 500 g ai/ha): 50; Plant response rating, Rice [9, 15]: 20; Plant response rating, Rice [9, 16]: 50; Plant response rating, Sedge, Umbrella [10, 15]: 0; Plant response rating, Sedge, Umbrella [10, 16]: 100; Plant response rating, Ducksalad [11, 15]: 0; Plant response rating, Ducksalad [11, 16]: 90; Plant response rating, Barnyardgrass [12, 15]: 30; Plant response rating, Barnyardgrass [12, 16]: 30 |
